Laboratory results as given in paper PMC7527709 (Redox Biology, 2020).

Experiments:
[1] = biological target: T1, Kv1.3 (Homo sapiens, UniProt P22001); test: whole-cell patch clamp, Kv1.[…] stably expressed in CHO cells; assay type: cell-based
[2] = biological target: T1, Kv1.3; test: whole-cell patch clamp of Kv1.[…] current in Jurkat lymphocytes, […] compound; assay type: cell-based; settings: read-out: % inhibition at 1 μM

T1 sequence (P22001 whole entry): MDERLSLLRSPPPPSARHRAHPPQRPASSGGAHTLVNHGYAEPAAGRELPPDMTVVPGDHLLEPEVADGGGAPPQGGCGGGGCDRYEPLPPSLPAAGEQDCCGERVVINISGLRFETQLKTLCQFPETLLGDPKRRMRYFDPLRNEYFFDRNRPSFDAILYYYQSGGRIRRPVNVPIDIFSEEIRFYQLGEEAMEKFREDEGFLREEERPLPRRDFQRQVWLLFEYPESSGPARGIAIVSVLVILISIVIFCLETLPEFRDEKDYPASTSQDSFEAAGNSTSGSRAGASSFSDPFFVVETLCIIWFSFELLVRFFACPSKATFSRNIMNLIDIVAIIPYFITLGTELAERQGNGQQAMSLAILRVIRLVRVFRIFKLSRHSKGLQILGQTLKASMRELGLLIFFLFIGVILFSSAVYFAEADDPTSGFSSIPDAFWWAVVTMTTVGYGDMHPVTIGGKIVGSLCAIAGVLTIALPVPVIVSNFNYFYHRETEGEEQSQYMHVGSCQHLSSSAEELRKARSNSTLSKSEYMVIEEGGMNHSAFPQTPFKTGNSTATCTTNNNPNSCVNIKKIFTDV

inhibition at 1 µM [2] [%] | SMILES | EC50 [1] [nM]
 | COCCOCCOCCOCCOCCOCCOc1ccc(OCCCCOc2c3ccoc3cc3oc(=O)ccc23)cc1 [PAP-1-MHEG, 4-(4-(4-(2,5,8,11,14,17-hexaoxanonadecan-19-yloxy)phenoxy)butoxy)-7H-furo[3,2-g]chromen-7-one] | 350 ± 30
~70 | CCCCCOc1ccc(OCCOCCOCCOCCOCCOCCOC)cc1 [POP-MHEG, 19-(4-(pentyloxy)phenoxy)-2,5,8,11,14,17-hexaoxanonadecane] | 
